Reference: ChEMBL document CHEMBL1777811, “Actin depolymerizing effect of trisoxazole-containing macrolides” (2011)
Calls of active or inactive are those of the source. The rule behind the calls is not given here.

How the values were obtained:
[1] = tested on: Salmonella typhimurium; experiment: Antibacterial activity against Salmonella Typhimurium ATCC 14028 at 100 ug/ml after 24 hrs by twofold serial dilution method; format: functional, organism-based; details: Salmonella enterica subsp. enterica serovar Typhimurium
[2] = Induction of depolymerization of F-actin by fluorimetry
[3] = tested on: Proteus vulgaris; experiment: Antibacterial activity against Proteus vulgaris ATCC 3851 at 100 ug/ml after 24 hrs by twofold serial dilution method; format: functional, organism-based
[4] = tested on: Escherichia coli; experiment: Antibacterial activity against Escherichia coli ATCC 25922 at 100 ug/ml after 24 hrs by twofold serial dilution method; format: functional, organism-based
[5] = tested on: Trichophyton rubrum; experiment: Antifungal activity against Trichophyton rubrum IFO 9185 after 48 to72 hrs by twofold serial dilution method; format: functional
[6] = tested on: Bacillus subtilis; experiment: Antibacterial activity against Bacillus subtilis ATCC 6633 at 100 ug/ml after 24 hrs by twofold serial dilution method; format: functional, organism-based
[7] = tested on: Candida albicans; experiment: Antifungal activity against Candida albicans ATCC 10231 after 48 to72 hrs by twofold serial dilution method; format: functional
[8] = Induction of depolymerization of F-actin at 7.28 uM by fluorimetry relative to control
[9] = tested on: Aspergillus fumigatus; experiment: Antifungal activity against Aspergillus fumigatus HIC 6094 after 48 to72 hrs by twofold serial dilution method; format: functional
[10] = tested on: Staphylococcus aureus; experiment: Antibacterial activity against Staphylococcus aureus ATCC 6538p at 100 ug/ml after 24 hrs by twofold serial dilution method; format: functional, organism-based
[11] = tested on: Trichophyton mentagrophytes; experiment: Antifungal activity against Trichophyton mentagrophytes IFO 40996 after 48 to72 hrs by twofold serial dilution method; format: functional
[12] = tested on: Staphylococcus aureus; experiment: Antibacterial activity against Staphylococcus aureus IFO 12708 at 100 ug/ml after 24 hrs by twofold serial dilution method; format: functional, organism-based
[13] = Induction of depolymerization of F-actin at 14 to 114 uM by fluorimetry relative to control
[14] = Induction of depolymerization of F-actin at 15 to 120 uM by fluorimetry relative to control
[15] = Induction of depolymerization of F-actin at 1.82 uM by fluorimetry relative to control
[16] = Induction of depolymerization of F-actin at 112 uM by fluorimetry relative to control

## COC(CC1OC(=O)CC(O)C/C=C/C(=O)C(C)C(OC)c2coc(n2)-c2coc(n2)-c2coc(n2)/C=C/CCC1C)C(C)CCC(=O)C(C)C(C/C=C/N(C)C=O)OC (stereo unspecified) [HALICHONDRAMIDE]
[1]
  Activity: inactive
[2]
  Activity: Dose-dependent effect
[3]
  Activity: inactive
[4]
  Activity: inactive
[5]
  MIC: 0.48 µM
[6]
  Activity: inactive
[7]
  MIC: 0.23 µM
[8]
  Activity: > 90%
[9]
  MIC: 0.45 µM
[10]
  Activity: inactive
[11]
  MIC: 0.91 µM
[12]
  Activity: inactive

## COC(CC1OC(=O)CC(O)CC(O)CC(=O)C(C)C(OC)c2coc(n2)-c2coc(n2)-c2coc(n2)/C=C/CCC1C)C(C)CCC(=O)C(C)C(C/C=C/N(C)C=O)OC (stereo unspecified) [JASPISAMIDE A]
[1]
  Activity: inactive
[13]
  Activity: inactive
[3]
  Activity: inactive
[4]
  Activity: inactive
[5]
  MIC: > 100 µg/mL
[6]
  Activity: inactive
[7]
  MIC: > 100 µg/mL
[9]
  MIC: > 100 µg/mL
[10]
  Activity: inactive
[11]
  MIC: > 100 µg/mL
[12]
  Activity: inactive

## C[C@@H]1[C@H](O)[C@@H](C)/C=C/C=C/C=C/C=C/C=C/C=C/C=C/[C@H](O[C@@H]2O[C@H](C)[C@@H](O)[C@H](N)[C@@H]2O)C[C@@H]2O[C@](O)(C[C@@H](O)C[C@@H](O)[C@H](O)CC[C@@H](O)C[C@@H](O)CC(=O)O[C@H]1C)C[C@H](O)[C@H]2C(=O)O [AMPHOTERICIN B]
[5]
  MIC: 0.84 µM
[7]
  MIC: 0.22 µM
[9]
  MIC: 0.84 µM
[11]
  MIC: 0.84 µM

## COC(CC1OC(=O)CC(O)/C=C/CC(=O)C(C)C(OC)c2coc(n2)-c2coc(n2)-c2coc(n2)/C=C/CCC1C)C(C)CCC(=O)C(C)C(C/C=C/N(C)C=O)OC (stereo unspecified) [NEOHALICHONDRAMIDE]
[1]
  Activity: inactive
[14]
  Activity: inactive
[3]
  Activity: inactive
[4]
  Activity: inactive
[5]
  MIC: > 100 µg/mL
[6]
  Activity: inactive
[7]
  MIC: > 100 µg/mL
[9]
  MIC: > 100 µg/mL
[10]
  Activity: inactive
[11]
  MIC: > 100 µg/mL
[12]
  Activity: inactive

## COC(CC1OC(=O)CC(O)C/C=C\C(=O)C(C)C(OC)c2coc(n2)-c2coc(n2)-c2coc(n2)/C=C\CCC1C)C(C)CCC(=O)C(C)C(C/C=C/N(C)C=O)OC (stereo unspecified)
[1]
  Activity: inactive
[2]
  Activity: Dose-dependent effect
[15]
  Activity: > 90%
[3]
  Activity: inactive
[4]
  Activity: inactive
[5]
  MIC: 7.27 µM
[6]
  Activity: inactive
[7]
  MIC: 0.91 µM
[9]
  MIC: 14.6 µM
[10]
  Activity: inactive
[11]
  MIC: 14.6 µM
[12]
  Activity: inactive

## COC(=O)c1coc(/C=C/CCC(C)C(CC(OC)C(C)CCC(=O)C(C)C(C/C=C/N(C)C=O)OC)OC(=O)CC(O)C/C=C/C(=O)C(C)C(OC)c2coc(C(N)=O)n2)n1 (stereo unspecified) [HALISHIGAMIDE D]
[1]
  Activity: inactive
[3]
  Activity: inactive
[4]
  Activity: inactive
[5]
  MIC: > 100 µg/mL
[6]
  Activity: inactive
[7]
  MIC: > 100 µg/mL
[9]
  MIC: > 100 µg/mL
[10]
  Activity: inactive
[11]
  MIC: > 100 µg/mL
[12]
  Activity: inactive
[16]
  Activity: 40%
